In PubChem BioAssay (NCI):
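Tested at 5 concentrations; 48 h exposure; 96-well plates; endpoints linearly interpolated, else capped at highest concentration. The concentration for full growth arrest is given as TGI.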

How the values were obtained:
Assay in all cases: DTP human tumour cell line panel, 48 h
RXF 393 renal = system: RXF 393 renal
HCT-15 colon = system: HCT-15 colon
KM12 colon = system: KM12 colon
M14 melanoma = system: M14 melanoma
DMS 273 small cell lung = system: DMS 273 small cell lung
SNB-75 CNS = system: SNB-75 CNS
CAKI-1 renal = system: CAKI-1 renal
SF-268 CNS = system: SF-268 CNS
A498 renal = system: A498 renal
HCT-116 colon = system: HCT-116 colon
DLD-1 colon = system: DLD-1 colon
786-0 renal = system: 786-0 renal
SK-MEL-5 melanoma = system: SK-MEL-5 melanoma
MOLT-4 leukemia = system: MOLT-4 leukemia
OVCAR-3 ovarian = system: OVCAR-3 ovarian
NCI-H226 lung = system: NCI-H226 lung
OVCAR-4 ovarian = system: OVCAR-4 ovarian
HL-60(TB) leukemia = system: HL-60(TB) leukemia
HOP-62 NSCLC = system: HOP-62 NSCLC
LXFL 529 NSCLC = system: LXFL 529 NSCLC
UACC-257 melanoma = system: UACC-257 melanoma
SF-539 CNS = system: SF-539 CNS
KM20L2 colon = system: KM20L2 colon
HT29 colon = system: HT29 colon
HOP-92 NSCLC = system: HOP-92 NSCLC
A549 NSCLC = system: A549 NSCLC
U251 CNS = system: U251 CNS
MALME-3M melanoma = system: MALME-3M melanoma
UACC-62 melanoma = system: UACC-62 melanoma
K-562 leukemia = system: K-562 leukemia
SR leukemia = system: SR leukemia
RPMI-8226 leukemia = system: RPMI-8226 leukemia
TK-10 renal = system: TK-10 renal
SF-295 CNS = system: SF-295 CNS
NCI-H522 lung = system: NCI-H522 lung
IGROV1 ovarian = system: IGROV1 ovarian
SK-MEL-28 melanoma = system: SK-MEL-28 melanoma
HOP-18 NSCLC = system: HOP-18 NSCLC
COLO 205 colon = system: COLO 205 colon
NCI-H23 lung = system: NCI-H23 lung
SNB-78 CNS = system: SNB-78 CNS
SN12C renal = system: SN12C renal
SW-620 colon = system: SW-620 colon
OVCAR-5 ovarian = system: OVCAR-5 ovarian
ACHN renal = system: ACHN renal
DMS 114 small cell lung = system: DMS 114 small cell lung
SK-MEL-2 melanoma = system: SK-MEL-2 melanoma
OVCAR-8 ovarian = system: OVCAR-8 ovarian
LOX IMVI melanoma = system: LOX IMVI melanoma
UO-31 renal = system: UO-31 renal
CCRF-CEM leukemia = system: CCRF-CEM leukemia
NCI-H460 lung = system: NCI-H460 lung
SK-OV-3 ovarian = system: SK-OV-3 ovarian
M19-MEL melanoma = system: M19-MEL melanoma
SNB-19 CNS = system: SNB-19 CNS

Measured: TGI

Clc1ccc(CCn2cncn2)cc1
> 100 µM: RXF 393 renal | HCT-15 colon | KM12 colon | M14 melanoma | DMS 273 small cell lung | SNB-75 CNS | CAKI-1 renal | SF-268 CNS | A498 renal | HCT-116 colon | DLD-1 colon | 786-0 renal | SK-MEL-5 melanoma | MOLT-4 leukemia | OVCAR-3 ovarian | NCI-H226 lung | OVCAR-4 ovarian | HL-60(TB) leukemia | HOP-62 NSCLC | LXFL 529 NSCLC | UACC-257 melanoma | SF-539 CNS | KM20L2 colon | HT29 colon | HOP-92 NSCLC | A549 NSCLC | U251 CNS | MALME-3M melanoma | UACC-62 melanoma | K-562 leukemia | SR leukemia | RPMI-8226 leukemia | TK-10 renal | SF-295 CNS | NCI-H522 lung | IGROV1 ovarian | SK-MEL-28 melanoma | HOP-18 NSCLC | COLO 205 colon | NCI-H23 lung | SNB-78 CNS | SN12C renal | SW-620 colon | OVCAR-5 ovarian | ACHN renal | DMS 114 small cell lung | SK-MEL-2 melanoma | OVCAR-8 ovarian | LOX IMVI melanoma | UO-31 renal | CCRF-CEM leukemia | NCI-H460 lung | SK-OV-3 ovarian | M19-MEL melanoma

CCOP12(OCC)NC(=O)OC1(C(F)(F)F)c1ccccc1O2 (stereo not drawn)
> 100 µM: RXF 393 renal | HCT-15 colon | KM12 colon | M14 melanoma | DMS 273 small cell lung | SNB-75 CNS | SF-268 CNS | HCT-116 colon | DLD-1 colon | 786-0 renal | SK-MEL-5 melanoma | MOLT-4 leukemia | OVCAR-3 ovarian | NCI-H226 lung | OVCAR-4 ovarian | HL-60(TB) leukemia | LXFL 529 NSCLC | UACC-257 melanoma | SF-539 CNS | HT29 colon | A549 NSCLC | MALME-3M melanoma | UACC-62 melanoma | K-562 leukemia | TK-10 renal | SF-295 CNS | NCI-H522 lung | SNB-19 CNS | IGROV1 ovarian | SK-MEL-28 melanoma | HOP-18 NSCLC | NCI-H23 lung | SNB-78 CNS | SN12C renal | ACHN renal | DMS 114 small cell lung | SK-MEL-2 melanoma | OVCAR-8 ovarian | LOX IMVI melanoma | UO-31 renal | CCRF-CEM leukemia | NCI-H460 lung | SK-OV-3 ovarian | M19-MEL melanoma
